US5658885A, “Amidino and guanidino substituted boronic acid inhibitors of trypsin-like enzymes” (The DuPont Merck Pharmaceutical Company, priority 1994, dated 1997)
Where a name gives a salt, the structure may show the parent alone.

Molecular target: T1, human thrombin (Homo sapiens, UniProt P00734)
T1 construct: 0.2-0.5 nM human thrombin or human factor Xa; purchased Enzyme Research Laboratories, South Bend, Ind
Assay: Inhibition of thrombin hydrolysis of chromogenic substrate S2238 (Ki)
Format: biochemical
Conditions: S2238, pH 7.5
Protocol: The effectiveness of compounds of the present invention as inhibitors of blood coagulation proteases was determined using purified human proteases and synthetic substrates following procedures similar to those described in Kettner et al. (1990).
For these assays, the rate of enzymatic (thrombin, Factor Xa, and Factor VIIa) hydrolysis of chromogenic substrates (S2238 (H-D-Phe-Pip-Arg-pNA), S2222, and S2288, respectively; Kabi Pharmacia, Franklin, Ohio) was measured both in the absence and presence of compounds of the present invention. […] A decrease in the rate of absorbance change at 405 nm in the presence of inhibitor is indicative of enzyme inhibition. The results of this assay are expressed as inhibitory constant, Ki.
Thrombin and Xa determinations were made in 0.10M sodium phosphate buffer, pH 7.5, containing 0.20M NaCl, and 0.5% PEG 8000. VIIa determinations were made in 0.05M tris buffer, pH 7.6, containing 0.10M NaCl, 4 mM CaCl2, and 0.1% bovine serum albumin.
Reactions were allowed to go for 30 minutes and the velocities (rate of absorbance change vs time) were measured in the time frame of 25-30 minutes. The following relationship was used to calculate Ki values. [formula] where: vo is the velocity of the control in the absence of inhibitor;
vs is the velocity in the presence of inhibitor;
I is the concentration of inhibitor;
Ki is the dissociation constant of the enzyme: inhibitor complex;
S is the concentration of substrate;
Km is the Michaelis constant.

Row | Ki | Compound
1 | < 0.5 µM | CC1(C)C2CC3OB(C(CCCNS(C)(=O)=O)NC(=O)C4CCCN4C(=O)[C@@H](Cc4ccccc4)NCC(=O)O)OC3(C)C1C2 (some centres unmarked) [Example 119, HOOCCH2 --(D)Phe--Pro--boroOrn(N-Methanesulfonyl)-C10 H16.HCl]
2 | < 0.5 µM | CC1(C)C2CC3OB(C(CCCNS(C)(=O)=O)NC(=O)[C@@H]4CCCN4C(=O)[C@@H](Cc4ccccc4)NS(=O)(=O)Cc4ccccc4)OC3(C)C1C2 (some centres unmarked) [Example 120, PhCH2 SO2 --(D)Phe--Pro--boroOrn(N-Methanesulfonyl)-C10 H16]
3 | < 0.5 µM | CCOCCCC(NC(=O)C1CCCN1C(=O)C(Cc1ccccc1)NC(=O)OC(C)(C)C)B1OC2CC3CC(C3(C)C)C2(C)O1 (centres unmarked) [Example 121, Boc--(D)Phe--Pro--boroGly[(CH2)3 --OCH2 CH3]--C10 H16]
4 | < 50 µM | CC(C)(C)OC(=O)NC(Cc1ccccc1)C(=O)N1CCCC1C(=O)NC(CCCC#N)B1OC2CC3CC(C3(C)C)C2(C)O1 (centres unmarked) [Example 122, Boc--(D)Phe--Pro--boroGly[(CH2)3 --CN]--C10 H16]
5 | < 0.5 µM | CC(C)(C)OC(=O)N[C@H](Cc1ccccc1)C(=O)N1CCC[C@H]1C(=O)NC(CC1CCC(N)CC1)B1OC2CC3CC(C3(C)C)C2(C)O1 (some centres unmarked) [Example 125, Boc--(D)Phe--Pro--NH--CH[CH2 (4-amino-cyclohexyl)]BO2 --C10 H16]
6 | < 0.5 µM | CC(C)(C)OC(=O)N[C@H](Cc1ccccc1)C(=O)N1CCCC1C(=O)NC(CC1CCC(O)CC1)B1OC2CC3CC(C3(C)C)C2(C)O1 (some centres unmarked) [Example 127, Boc--(D)Phe--Pro--NH--CH[CH2 (4-hydroxy-cyclohexyl)]BO2 --C10 H16]
7 | < 0.5 µM | CC(C)(C)OC(=O)NC(Cc1ccccc1)C(=O)N1CCCC1C(=O)NC(CC1CCC(N=C(N)N)CC1)B1OC2CC3CC(C3(C)C)C2(C)O1 (centres unmarked) [Example 128, Boc--(D)Phe--Pro--NH--CH[CH2 (4-guanidino-cyclohexyl)]BO2 --C10 H16]
8 | < 0.5 µM | COC(=O)C(Cc1cccc(C#N)c1)NC(=O)C1CCCN1C(=O)C(Cc1ccccc1)NC(=O)OC(C)(C)C [Example 129, Boc--(D)Phe--Pro--(R)Phe(mCN)--OMe]
9 | < 0.5 µM | COC(=O)C(Cc1cccc(C#N)c1)NC(=O)C1CCCN1C(=O)C(Cc1ccccc1)NC(=O)OC(C)(C)C [Example 130, Boc--(D)Phe--Pro--(S)Phe(mCN)--OMe]
10 | < 0.5 µM | COC(=O)c1cccc(CC(NC(=O)C2CCCN2C(=O)C(N)Cc2ccccc2)B2OC3CC4CC(C4(C)C)C3(C)O2)c1 (centres unmarked) [Example 135, H--(D)Phe--Pro--boroPhe(mCOOMe)--C10 H16.HCl]
11 | < 0.5 µM | COCCCC(NC(=O)C1CCCN1C(=O)C(Cc1ccccc1)NC(=O)OC(C)(C)C)B1OC2CC3CC(C3(C)C)C2(C)O1 (centres unmarked) [Example 138, Boc--(D)--Phe--Pro--boroGly[(CH2)3 --OCH3]--C10 H16]
12 | < 0.5 µM | COCCCC(NC(=O)C1CCCN1C(=O)C(N)Cc1ccccc1)B1OC2CC3CC(C3(C)C)C2(C)O1 (centres unmarked) [Example 139, H--(D)--Phe--Pro--boroGly[(CH2)3 --OCH3]--C10 H16]
13 | < 0.5 µM | CN[C@H](Cc1ccccc1)C(=O)N1CCCC1C(=O)NC(CCCOC)B1OC2CC3CC(C3(C)C)C2(C)O1 (some centres unmarked) [Example 142, N-methyl-(D)--Phe--Pro--boroGly[(CH2)3 --OCH3]--C10 H16]
14 | < 0.5 µM | COCCCC(NC(=O)[C@@H]1CCCN1C(=O)[C@@H](Cc1ccccc1)NC(C)C)B1OC2CC3CC(C3(C)C)C2(C)O1 (some centres unmarked) [Example 143, (CH3)2 CH--(D)--Phe--Pro--boroGly[(CH2)3 --OCH3]--C10 H16]
15 | < 0.5 µM | COCCCC(NC(=O)C1CCCN1C(=O)C(Cc1ccccc1)NC(=O)CNC(C)=O)B1OC2CC3CC(C3(C)C)C2(C)O1 (centres unmarked) [Example 144, Ac--Gly--(D)--Phe--Pro--boroGly[(CH2)3 --OCH3]--C10 H16]
16 | < 0.5 µM | COCCCC(NC(=O)[C@@H]1CCCN1C(=O)[C@@H](Cc1ccccc1)NC(=O)[C@@H]1CCCN1)B1OC2CC3CC(C3(C)C)C2(C)O1 (some centres unmarked) [Example 145, H--Pro--(D)--Phe--Pro--boroGly[(CH2)3 --OCH3]--C10 H16]
17 | < 50 µM | Ac--(D)--Phe--Pro--boroGly[(CH2)3 --OCH3 ]--C10 H16 [Example 137]
